Data as given in ChEMBL document CHEMBL3351474, “Ambidalmines A-E and ambidimerine F: bioactive dihydrobenzophenanthridine alkaloids from Corydalis ambigua var. amurensis” (2014).

Experiments:
Assay type in all cases: functional
H9c2 [1] = assay: Cytoprotective activity against ischemia-hypoxia injury in rat H9c2 cells assessed as increase in cell viability at 0.1 uM by MTT assay relative to control
H9c2 [2] = assay: Cytoprotective activity against ischemia-hypoxia injury in rat H9c2 cells assessed as increase in cell viability at 10 uM by MTT assay relative to control
H9c2 [3] = assay: Cytoprotective activity against ischemia-hypoxia injury in rat H9c2 cells assessed as increase in cell viability at 1 uM by MTT assay relative to control
H9c2 [4] = assay: Cytoprotective activity against ischemia-hypoxia injury in rat H9c2 cells assessed as increase in cell viability at 0.01 uM by MTT assay relative to control

COc1cc2c(OC)cc3c(c2cc1OC)N(C)[C@@H](CC(=O)C[C@H]1c2c4c(cc(OC)c2-c2cc(OC)c5cc(OC)c(OC)cc5c2N1C)OCO4)c1c2c(cc(OC)c1-3)OCO2
Activity (H9c2 [1]): 41.02% | Activity (H9c2 [2]): 27.48% | Activity (H9c2 [3]): 36.59% | Activity (H9c2 [4]): 40.26%

COc1cc2c(OC)cc3c(c2cc1OC)N(C)[C@H](CO)c1c2c(cc(OC)c1-3)OCO2
Activity (H9c2 [1]): 46.01% | Activity (H9c2 [2]): 36.62% | Activity (H9c2 [3]): 50.74% | Activity (H9c2 [4]): 41.38%

COc1cc2c(OC)cc3c(c2cc1OC)N(C)[C@H](CC(C)=O)c1c2c(cc(OC)c1-3)OCO2
Activity (H9c2 [1]): 40.68% | Activity (H9c2 [2]): 29.1% | Activity (H9c2 [3]): 37.74% | Activity (H9c2 [4]): 42.15%

COc1cc2c(OC)cc3c(c2cc1OC)N(C)[C@@H](CC(C)=O)c1c2c(cc(OC)c1-3)OCO2
Activity (H9c2 [1]): 50.09% | Activity (H9c2 [2]): 44.27% | Activity (H9c2 [3]): 45.29% | Activity (H9c2 [4]): 53.88%

COc1cc2c(OC)cc3c(c2cc1OC)N(C)[C@H](CC(=O)C[C@H]1c2c4c(cc(OC)c2-c2cc(OC)c5cc(OC)c(OC)cc5c2N1C)OCO4)c1c2c(cc(OC)c1-3)OCO2
Activity (H9c2 [1]): 50.56% | Activity (H9c2 [2]): 44.75% | Activity (H9c2 [3]): 44.26%

COc1cc2c(OC)cc3c(c2cc1OC)N(C)[C@@H](CO)c1c2c(cc(OC)c1-3)OCO2
Activity (H9c2 [1]): 54.72% | Activity (H9c2 [2]): 32.71% | Activity (H9c2 [3]): 49.42% | Activity (H9c2 [4]): 47.54%

COc1cc2c(OC)cc3c(c2cc1OC)N(C)C(CC(=O)CC(C)(C)O)c1c2c(cc(OC)c1-3)OCO2 (racemic)
Activity (H9c2 [1]): 41.47% | Activity (H9c2 [2]): 32.63% | Activity (H9c2 [3]): 44.75% | Activity (H9c2 [4]): 41.8%
